Data taken from patent publication US9073903B2, “Imidazole-2,4-dione inhibitors of casein kinase 1” (Jasco Pharmaceuticals, LLC, priority 2010, dated 2015).
Read-outs that look alike come from different tables or passages of the source.

Columns and labels:
PC-3 cells = assay: Inhibition of PC-3 cells (MTS cell proliferation); format: cell-based; settings: for OD value 1 / OD value 2: 490 nm; for OD value 1 / OD value 2 / inhibition at 0.4 µM / inhibition at 0.8 µM / inhibition at 1.6 µM / inhibition at 3.2 µM / inhibition at 6.25 µM / inhibition at 12.5 µM / inhibition at 25 µM / inhibition at 50 µM / inhibition at 100 µM: 72 h; for inhibition at 0.4 µM / inhibition at 0.8 µM / inhibition at 1.6 µM / inhibition at 3.2 µM / inhibition at 6.25 µM / inhibition at 12.5 µM / inhibition at 25 µM / inhibition at 50 µM / inhibition at 100 µM / IC50: Homo sapiens, PC-3
Method: Inhibition of PC-3 Cells: Cells: PC-3 cells, ATCC Passage unknown, Mycoplasma free. Medium: DMEM Medium (GIBCO Cat #11995073) supplemented with 10% fetal bovine serum (Hyclone Cat #SH30396.03). Seeding: 3,000 cells/well (100 ul) into 96-wells plate, incubated overnight at 37° C. in a humidified, 5% CO2 atmosphere. Treatment: Test compounds and Gemcitabine were prepared in a serial dilution (1:2) by culture medium. Fifty microliters (50 uL) of serially diluted solutions were added into each well. The final concentrations of the positive control and test compounds were shown in the graphs. The cells were incubated for 72 hours after addition of the test compounds. MTS: 15 uL of MTS solution (Promega Cat #G5430) was added into each well and incubated with cells for 4 hours at 37° C. in a humidified, 5% CO2 atmosphere. Measurement: Absorbance at 490 nm was measured using MD Spectramax Plus384 spectrophotometer. The regression curves were calculated by the GraphPad Prism 5 using “log(inhibitor) vs response—variable slope”. Calculation: % of inhibition=(ODzero ctrl−OD compound)/ODzero ctrl*100.

MDA-MB-468 cells = assay: Inhibition of MDA-MB-468 cells (MTS cell proliferation); format: cell-based; settings: for OD value 1 / OD value 2: 490 nm; for OD value 1 / OD value 2 / inhibition at 0.4 µM / inhibition at 0.8 µM / inhibition at 1.6 µM / inhibition at 3.2 µM / inhibition at 6.25 µM / inhibition at 12.5 µM / inhibition at 25 µM / inhibition at 50 µM / inhibition at 100 µM: 72 h; for inhibition at 0.4 µM / inhibition at 0.8 µM / inhibition at 1.6 µM / inhibition at 3.2 µM / inhibition at 6.25 µM / inhibition at 12.5 µM / inhibition at 25 µM / inhibition at 50 µM / inhibition at 100 µM / IC50: Homo sapiens
Method: Inhibition of MDA-MB-468 Cells Cells: MDA-MB-468 cells, ATCC Passage unknown, Mycoplasma free. Medium: RPMI-1640 Medium (GIBCO Cat #22400121) supplemented with 10% fetal bovine serum (Hyclone Cat #SH30396.03). Seeding: 2,000 cells/well (100 ul) into 96-wells plate, incubated overnight at 37° C. in a humidified, 5% CO2 atmosphere. Treatment: Test compounds and Gemcitabine were prepared in a serial dilution (1:2) by culture medium. Fifty microliters (50 uL) of serially diluted solutions were added into each well. The final concentrations of the positive control and test compounds were shown in the graphs. The cells were incubated for 72 hours after addition of the test compounds. MTS: 15 uL of MTS solution (Promega Cat #G5430) was added into each well and incubated with cells for 4 hours at 37° C. in a humidified, 5% CO2 atmosphere. Measurement: Absorbance at 490 nm was measured using MD Spectramax Plus384 spectrophotometer. The regression curves were calculated by the GraphPad Prism 5 using “log(inhibitor) vs response—variable slope”.

IC50 (PC-3 cells; Table 18, read-out: PC-3* 50% inhibition concentration): 41.3 µM | IC50 (PC-3 cells; Table 26, 72 hours, read-out: 50% viability conc.): 41.3 µM | IC50 (MDA-MB-468 cells; MDA-MB-468, Table 17, read-out: MDA-MB-468* 50% inhibition concentration): 3.34 µM | IC50 (MDA-MB-468 cells; Table 26, MDA-MB-468, 72 hours, read-out: 50% viability conc.): 3.34 µM | IC50 (MDA-MB-468 cells; Table 26, MDA-MB-468, 72 hours, read-out: IC50): 2.53 µM
SMILES: Nc1ccn([C@@H]2O[C@H](CO)[C@@H](O)C2(F)F)c(=O)n1 [Gemcitabine]
OD value 1 (PC-3 cells; 0.400 uM, replicate 1): 0.884 | OD value 2 (PC-3 cells; 0.400 uM, replicate 2): 0.866 | OD value 1 (PC-3 cells; 0.800 uM, replicate 1): 0.860 | OD value 2 (PC-3 cells; 0.800 uM, replicate 2): 0.803 | OD value 1 (PC-3 cells; 1.600 uM, replicate 1): 0.794 | OD value 2 (PC-3 cells; 1.600 uM, replicate 2): 0.778 | OD value 1 (PC-3 cells; 3.200 uM, replicate 1): 0.726 | OD value 2 (PC-3 cells; 3.200 uM, replicate 2): 0.756 | OD value 1 (PC-3 cells; 6.250 uM, replicate 1): 0.686 | OD value 2 (PC-3 cells; 6.250 uM, replicate 2): 0.692 | OD value 1 (PC-3 cells; 12.500 uM, replicate 1): 0.617 | OD value 2 (PC-3 cells; 12.500 uM, replicate 2): 0.628 | OD value 1 (PC-3 cells; 25.000 uM, replicate 1): 0.572 | OD value 2 (PC-3 cells; 25.000 uM, replicate 2): 0.583 | OD value 1 (PC-3 cells; 50.000 uM, replicate 1): 0.458 | OD value 2 (PC-3 cells; 50.000 uM, replicate 2): 0.488 | OD value 1 (PC-3 cells; 100.000 uM, replicate 1): 0.246 | OD value 2 (PC-3 cells; 100.000 uM, replicate 2): 0.214 | inhibition at 0.4 µM (PC-3 cells; 0.400 uM, replicate 1, read-out: % of inhibition 1): 2.1% | inhibition at 0.4 µM (PC-3 cells; 0.400 uM, replicate 2, read-out: % of inhibition 2): 1.92% | inhibition at 0.8 µM (PC-3 cells; 0.800 uM, replicate 1, read-out: % of inhibition 1): 4.8% | inhibition at 0.8 µM (PC-3 cells; 0.800 uM, replicate 2, read-out: % of inhibition 2): 9.05% | inhibition at 1.6 µM (PC-3 cells; 1.600 uM, replicate 1, read-out: % of inhibition 1): 12% | inhibition at 1.6 µM (PC-3 cells; 1.600 uM, replicate 2, read-out: % of inhibition 2): 11.9% | inhibition at 3.2 µM (PC-3 cells; 3.200 uM, replicate 1, read-out: % of inhibition 1): 19.7% | inhibition at 3.2 µM (PC-3 cells; 3.200 uM, replicate 2, read-out: % of inhibition 2): 14.3% | inhibition at 6.25 µM (PC-3 cells; 6.250 uM, replicate 1, read-out: % of inhibition 1): 24.1% | inhibition at 6.25 µM (PC-3 cells; 6.250 uM, replicate 2, read-out: % of inhibition 2): 21.7% | inhibition at 12.5 µM (PC-3 cells; 12.500 uM, replicate 1, read-out: % of inhibition 1): 31.7% | inhibition at 12.5 µM (PC-3 cells; 12.500 uM, replicate 2, read-out: % of inhibition 2): 28.9% | inhibition at 25 µM (PC-3 cells; 25.000 uM, replicate 1, read-out: % of inhibition 1): 36.7% | inhibition at 25 µM (PC-3 cells; 25.000 uM, replicate 2, read-out: % of inhibition 2): 34% | inhibition at 50 µM (PC-3 cells; 50.000 uM, replicate 1, read-out: % of inhibition 1): 49.3% | inhibition at 50 µM (PC-3 cells; 50.000 uM, replicate 2, read-out: % of inhibition 2): 44.5% | inhibition at 100 µM (PC-3 cells; 100.000 uM, replicate 1, read-out: % of inhibition 1): 72.8% | inhibition at 100 µM (PC-3 cells; 100.000 uM, replicate 2, read-out: % of inhibition 2): 75.8% | OD value 1 (MDA-MB-468 cells; 0.400 μM, replicate 1): 0.313 | OD value 2 (MDA-MB-468 cells; 0.400 μM, replicate 2): 0.337 | OD value 1 (MDA-MB-468 cells; 0.800 μM, replicate 1): 0.275 | OD value 2 (MDA-MB-468 cells; 0.800 μM, replicate 2): 0.310 | OD value 1 (MDA-MB-468 cells; 1.600 μM, replicate 1): 0.201 | OD value 2 (MDA-MB-468 cells; 1.600 μM, replicate 2): 0.264 | OD value 1 (MDA-MB-468 cells; 3.200 μM, replicate 1): 0.151 | OD value 2 (MDA-MB-468 cells; 3.200 μM, replicate 2): 0.192 | OD value 1 (MDA-MB-468 cells; 6.250 μM, replicate 1): 0.101 | OD value 2 (MDA-MB-468 cells; 6.250 μM, replicate 2): 0.105 | OD value 1 (MDA-MB-468 cells; 12.500 μM, replicate 1): 0.066 | OD value 2 (MDA-MB-468 cells; 12.500 μM, replicate 2): 0.053 | OD value 1 (MDA-MB-468 cells; 25.000 μM, replicate 1): 0.033 | OD value 2 (MDA-MB-468 cells; 25.000 μM, replicate 2): 0.035 | OD value 1 (MDA-MB-468 cells; 50.000 μM, replicate 1): 0.064 | OD value 2 (MDA-MB-468 cells; 50.000 μM, replicate 2): 0.064 | OD value 1 (MDA-MB-468 cells; 100.000 μM, replicate 1): 0.034 | OD value 2 (MDA-MB-468 cells; 100.000 μM, replicate 2): 0.007 | inhibition at 0.4 µM (MDA-MB-468 cells; MDA-MB-468, 0.400 μM, replicate 1, read-out: % of inhibition 1): 6.01% | inhibition at 0.4 µM (MDA-MB-468 cells; MDA-MB-468, 0.400 μM, replicate 2, read-out: % of inhibition 2): 1.17% | inhibition at 0.8 µM (MDA-MB-468 cells; MDA-MB-468, 0.800 μM, replicate 1, read-out: % of inhibition 1): 17.4% | inhibition at 0.8 µM (MDA-MB-468 cells; MDA-MB-468, 0.800 μM, replicate 2, read-out: % of inhibition 2): 9.08% | inhibition at 1.6 µM (MDA-MB-468 cells; MDA-MB-468, 1.600 μM, replicate 1, read-out: % of inhibition 1): 39.6% | inhibition at 1.6 µM (MDA-MB-468 cells; MDA-MB-468, 1.600 μM, replicate 2, read-out: % of inhibition 2): 22.6% | inhibition at 3.2 µM (MDA-MB-468 cells; MDA-MB-468, 3.200 μM, replicate 1, read-out: % of inhibition 1): 54.7% | inhibition at 3.2 µM (MDA-MB-468 cells; MDA-MB-468, 3.200 μM, replicate 2, read-out: % of inhibition 2): 43.6% | inhibition at 6.25 µM (MDA-MB-468 cells; MDA-MB-468, 6.250 μM, replicate 1, read-out: % of inhibition 1): 69.7% | inhibition at 6.25 µM (MDA-MB-468 cells; MDA-MB-468, 6.250 μM, replicate 2, read-out: % of inhibition 2): 69.1% | inhibition at 12.5 µM (MDA-MB-468 cells; MDA-MB-468, 12.500 μM, replicate 1, read-out: % of inhibition 1): 80.2% | inhibition at 12.5 µM (MDA-MB-468 cells; MDA-MB-468, 12.500 μM, replicate 2, read-out: % of inhibition 2): 84.4% | inhibition at 25 µM (MDA-MB-468 cells; MDA-MB-468, 25.000 μM, replicate 1, read-out: % of inhibition 1): 90.1% | inhibition at 25 µM (MDA-MB-468 cells; MDA-MB-468, 25.000 μM, replicate 2, read-out: % of inhibition 2): 89.6% | inhibition at 50 µM (MDA-MB-468 cells; MDA-MB-468, 50.000 μM, replicate 1, read-out: % of inhibition 1): 80.8% | inhibition at 50 µM (MDA-MB-468 cells; MDA-MB-468, 50.000 μM, replicate 2, read-out: % of inhibition 2): 81.1% | inhibition at 100 µM (MDA-MB-468 cells; MDA-MB-468, 100.000 μM, replicate 1, read-out: % of inhibition 1): 89.8% | inhibition at 100 µM (MDA-MB-468 cells; MDA-MB-468, 100.000 μM, replicate 2, read-out: % of inhibition 2): 97.8% | Maximal inhibition % (MDA-MB-468 cells; Table 26, MDA-MB-468, 72 hours): 93.83%
